Results reported in ChEMBL document CHEMBL1153018, “Synthesis of pochoxime prodrugs as potent HSP90 inhibitors” (Bioorg Med Chem Lett, 2009).
The source made the active and inactive calls. The calls are words filed in the database; no cut-off is given here.

Tests used:
[1] = Aqueous solubility of the compound; format: physicochemical
[2] = biological target: Heat shock protein HSP 90-alpha (Homo sapiens) (UniProt P07900); assay: Binding affinity to human HSP90alpha at < 10 uM
[3] = Drug level in mouse liver at 4 mg/kg, iv; format: ADME, organism-based; design: dose 4 mg/kg, route intravenous
Liver = assay: Drug level in mouse liver at 30 mg/kg, po; format: ADME, organism-based; design: dose 30 mg/kg, route oral; details: in vivo
BT-474 = assay: Growth inhibition of human BT474 cells assessed as ATP level after 4 days; format: functional; details: BT-474, 96 h
MDA-MB-468 = assay: Growth inhibition of human MDA-MB-468 cells assessed as ATP level after 4 days; format: functional; details: MDA-MB-468, 96 h
NCI-N87 = assay: Growth inhibition of human NCI-N87 cells assessed as ATP level after 4 days; format: functional; details: NCI-N87, 96 h
[4] = biological target: Heat shock protein HSP 90-alpha (Homo sapiens) (UniProt P07900)
Mus musculus [5] = assay: Toxicity in ICR-SCID mouse kidney assessed as creatinine level at 75 mg/kg administered 3 times per week for 4 weeks measured after 24 hrs of last dose relative to untreated control; format: organism-based; design: dose 75 mg/kg; details: in vivo
Mus musculus [6] = assay: Toxicity in ICR-SCID mouse heart assessed as […] level at 50 mg/kg administered 3 times per week for 4 weeks measured after 24 hrs of last dose relative to untreated control; format: organism-based; design: dose 50 mg/kg; details: in vivo
Mus musculus [7] = assay: Toxicity in ICR-SCID mouse heart assessed as […] level at 75 mg/kg administered 3 times per week for 4 weeks measured after 24 hrs of last dose relative to untreated control; format: organism-based; design: dose 75 mg/kg; details: in vivo
Mus musculus [8] = assay: Toxicity in ICR-SCID mouse heart assessed as cholesterol level at 50 mg/kg administered 3 times per week for 4 weeks measured after 24 hrs of last dose relative to untreated control; format: organism-based; design: dose 50 mg/kg; details: in vivo
Mus musculus [9] = assay: Toxicity in ICR-SCID mouse heart assessed as cholesterol level at 75 mg/kg administered 3 times per week for 4 weeks measured after 24 hrs of last dose relative to untreated control; format: organism-based; design: dose 75 mg/kg; details: in vivo
K562 = assay: Growth inhibition of human K562 cells assessed as ATP level after 4 days; format: functional; details: K562, 96 h
MV4-11 = assay: Growth inhibition of human MV4-11 cells assessed as ATP level after 4 days; format: functional; details: MV4-11, 96 h
[10] = Growth inhibition of human tarceva and iressa-resistant HCC827 cells assessed as ATP level after 4 days; format: functional; details: HCC827, 96 h
NCI-H1975 = assay: Growth inhibition of human tarceva and iressa-resistant NCI-H1975 cells assessed as ATP level after 4 days; format: functional; details: NCI-H1975, 96 h
Mus musculus [11] = assay: Hepatotoxicity in ICR-SCID mouse liver assessed as alanine aminotransferase level at 100 mg/kg administered 3 times per week for 4 weeks measured after 24 hrs of last dose relative to untreated control; format: toxicity, organism-based; design: dose 100 mg/kg; details: in vivo
Mus musculus [12] = assay: Hepatotoxicity in ICR-SCID mouse liver assessed as alanine aminotransferase level at 50 mg/kg administered 3 times per week for 4 weeks measured after 24 hrs of last dose relative to untreated control; format: toxicity, organism-based; design: dose 50 mg/kg; details: in vivo
Mus musculus [13] = assay: Hepatotoxicity in ICR-SCID mouse liver assessed as alanine aminotransferase level at 75 mg/kg administered 3 times per week for 4 weeks measured after 24 hrs of last dose relative to untreated control; format: toxicity, organism-based; design: dose 75 mg/kg; details: in vivo
Mus musculus [14] = assay: Hepatotoxicity in ICR-SCID mouse liver assessed as aspartate aminotransferase level at 100 mg/kg administered 3 times per week for 4 weeks measured after 24 hrs of last dose relative to untreated control; format: toxicity, organism-based; design: dose 100 mg/kg; details: in vivo
Mus musculus [15] = assay: Hepatotoxicity in ICR-SCID mouse liver assessed as aspartate aminotransferase level at 50 mg/kg administered 3 times per week for 4 weeks measured after 24 hrs of last dose relative to untreated control; format: toxicity, organism-based; design: dose 50 mg/kg; details: in vivo
Mus musculus [16] = assay: Hepatotoxicity in ICR-SCID mouse liver assessed as aspartate aminotransferase level at 75 mg/kg administered 3 times per week for 4 weeks measured after 24 hrs of last dose relative to untreated control; format: toxicity, organism-based; design: dose 75 mg/kg; details: in vivo
Mus musculus [17] = assay: Hepatotoxicity in ICR-SCID mouse liver assessed as alkaline phosphatase level at 100 mg/kg administered 3 times per week for 4 weeks measured after 24 hrs of last dose relative to untreated control; format: toxicity, organism-based; design: dose 100 mg/kg; details: in vivo
Mus musculus [18] = assay: Hepatotoxicity in ICR-SCID mouse liver assessed as alkaline phosphatase level at 50 mg/kg administered 3 times per week for 4 weeks measured after 24 hrs of last dose relative to untreated control; format: toxicity, organism-based; design: dose 50 mg/kg; details: in vivo
Mus musculus [19] = assay: Hepatotoxicity in ICR-SCID mouse liver assessed as alkaline phosphatase level at 75 mg/kg administered 3 times per week for 4 weeks measured after 24 hrs of last dose relative to untreated control; format: toxicity, organism-based; design: dose 75 mg/kg; details: in vivo
Mus musculus [20] = assay: Hepatotoxicity in ICR-SCID mouse liver assessed as bilirubin level at 100 mg/kg administered 3 times per week for 4 weeks measured after 24 hrs of last dose relative to untreated control; format: toxicity, organism-based; design: dose 100 mg/kg; details: in vivo
Mus musculus [21] = assay: Hepatotoxicity in ICR-SCID mouse liver assessed as bilirubin level at 50 mg/kg administered 3 times per week for 4 weeks measured after 24 hrs of last dose relative to untreated control; format: toxicity, organism-based; design: dose 50 mg/kg; details: in vivo
Mus musculus [22] = assay: Hepatotoxicity in ICR-SCID mouse liver assessed as bilirubin level at 75 mg/kg administered 3 times per week for 4 weeks measured after 24 hrs of last dose relative to untreated control; format: toxicity, organism-based; design: dose 75 mg/kg; details: in vivo
Mus musculus [23] = assay: Toxicity in ICR-SCID mouse kidney assessed as creatinine level at 50 mg/kg administered 3 times per week for 4 weeks measured after 24 hrs of last dose relative to untreated control; format: organism-based; design: dose 50 mg/kg; details: in vivo
PC-3 = assay: Growth inhibition of human PC3 cells assessed as ATP level after 4 days; format: functional, cell-based
NSCLC = assay: Growth inhibition of human NSCLC cells assessed as ATP level after 4 days; format: functional, cell-based
[24] = Growth inhibition of human MDA231 cells assessed as ATP level after 4 days; format: functional; details: MDA-MB-231, 96 h
HCT-116 = assay: Growth inhibition of human HCT116 cells assessed as ATP level after 4 days; format: functional; details: HCT-116, 96 h
Homo sapiens = organism: Homo sapiens; assay: Growth inhibition of human tarceva and iressa-resistant […] cells assessed as ATP level after 4 days; format: functional

Row | Structure (SMILES) | solubility [1] [mg/mL] | Activity [2] | GI50 (BT-474) [nM] | GI50 (MDA-MB-468) [nM] | GI50 [4] [nM] | GI50 (K562) [nM] | GI50 (MV4-11) [nM] | GI50 (NCI-N87) [nM] | also measured
1 | O=C1OCC/C=C/CC/C=C/C(=N/OCC(=O)N2CCCCC2)Cc2cc(OP(=O)([O-])[O-])cc(O)c21.[Na+].[Na+] | ≥ 80 | inactive |  |  |  |  |  |  | 
2 | C[C@@H]1C/C=C/CC/C=C/C(=N/OCC(=O)N2CCCCC2)Cc2cc(OP(=O)([O-])[O-])cc(OP(=O)([O-])[O-])c2C(=O)O1.[Na+].[Na+].[Na+].[Na+] | > 100 | inactive |  |  |  |  |  |  | Cmax [3]: 3840 ng/g; Drug uptake (Liver): 12469 ng/g
3 | O=C1OCC/C=C/CC/C=C/C(=N/OCC(=O)N2CCCCC2)Cc2c(Cl)c(OP(=O)([O-])[O-])cc(O)c21.[Na+].[Na+] | ≥ 80 | inactive | 14 | 37 | > 10000 |  |  | 19 | 
4 | C[C@@H]1C/C=C/CC/C=C/C(=N/OCC(=O)N2CCCCC2)Cc2cc(O)cc(O)c2C(=O)O1 [POCHOXIME C] |  |  | 6 | 6 | 18 | 7 | 3 | 2 | Activity (PC-3): Active; Activity (NSCLC): Active; GI50 [24]: 6 nM; Activity (Homo sapiens): Active

More lines, main results first:

Row | solubility [1] [mg/mL] | Activity [2] | GI50 (BT-474) [nM] | GI50 (MDA-MB-468) [nM] | GI50 [4] [nM] | GI50 (K562) [nM] | GI50 (MV4-11) [nM] | Structure (SMILES) | GI50 (NCI-N87) [nM] | also measured
5 | ≥ 80 | inactive |  |  |  |  |  | O=C1OCC/C=C/CC/C=C/C(=N/OCC(=O)N2CCCCC2)Cc2cc(OCOP(=O)([O-])[O-])cc(O)c21.[Na+].[Na+] |  | 
6 | ≥ 80 | inactive |  |  |  |  |  | C[C@@H]1C/C=C/CC/C=C/C(=N/OCC(=O)N2CCCCC2)Cc2cc(OP(=O)([O-])[O-])cc(O)c2C(=O)O1.[Na+].[Na+] |  | 
7 | ≥ 80 | inactive |  |  |  |  |  | O=C1OCC/C=C/CC/C=C/C(=N/OCC(=O)N2CCCCC2)Cc2c(Cl)c(O)cc(OP(=O)([O-])[O-])c21.[Na+].[Na+] |  | 
8 |  |  | 5 | 780 |  | 48 | 11 | C=CCNC1=C2C[C@@H](C)C[C@H](OC)[C@H](O)[C@@H](C)/C=C(\C)[C@H](OC(N)=O)[C@@H](OC)/C=C\C=C(/C)C(=O)NC(=CC1=O)C2=O (stereo in doubt) [TANESPIMYCIN] | 1 | Activity (Mus musculus [5]): 0.2 mg/dL; Activity (Mus musculus [6]): 64.7 U/L; Activity (Mus musculus [7]): 166 U/L; Activity (Mus musculus [8]): 105.3 mg/dL; Activity (Mus musculus [9]): 97.5 mg/dL; GI50 [10]: 56 nM; GI50 (NCI-H1975): 35 nM; Activity (Mus musculus [11]): 11134 U/L; Activity (Mus musculus [12]): 175.3 U/L; Activity (Mus musculus [13]): 755.7 U/L; Activity (Mus musculus [14]): 10611.3 U/L; Activity (Mus musculus [15]): 216 U/L; Activity (Mus musculus [16]): 1058.3 U/L; Activity (Mus musculus [17]): 131.3 U/L; Activity (Mus musculus [18]): 128.3 U/L; Activity (Mus musculus [19]): 143.3 U/L; Activity (Mus musculus [20]): 1.1 mg/dL; Activity (Mus musculus [21]): 0.2 mg/dL; Activity (Mus musculus [22]): 0.25 mg/dL; Activity (Mus musculus [23]): 0.2 mg/dL
9 |  |  | 2 | 2 | 15 | 4 | 2 | O=C1OCC/C=C/CC/C=C/C(=N/OCC(=O)N2CCCCC2)Cc2cc(O)cc(O)c21 [POCHOXIME B] | 1 | Activity (PC-3): Active; Activity (NSCLC): Active; GI50 [24]: 2 nM; GI50 (HCT-116): 11 nM; Activity (Homo sapiens): Active
